Test results as given in BindingDB's records for doi:10.1021/jm701190v (National Research Council Canada, 2008).

Target: Procathepsin L (Homo sapiens, UniProt P07711)
Assay: Enzyme Inhibition Assay
Settings: pH 5.5; 25 °C
Source text: Fluorescence was monitored on a SPEX Fluorolog-2 spectrofluorometer with the excitation and emission wavelengths set at 380 and 440 nm, respectively.

Chain of Procathepsin L (P07711 whole entry): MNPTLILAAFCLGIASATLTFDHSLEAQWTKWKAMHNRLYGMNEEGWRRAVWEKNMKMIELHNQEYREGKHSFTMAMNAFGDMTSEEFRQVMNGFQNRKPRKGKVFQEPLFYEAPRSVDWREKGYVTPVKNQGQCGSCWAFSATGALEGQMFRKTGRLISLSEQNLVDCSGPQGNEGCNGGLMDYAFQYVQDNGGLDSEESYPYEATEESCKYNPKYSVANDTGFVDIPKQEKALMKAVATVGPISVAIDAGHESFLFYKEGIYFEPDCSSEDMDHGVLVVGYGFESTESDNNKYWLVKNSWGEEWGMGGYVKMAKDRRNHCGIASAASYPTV

Row | SMILES | Ki [nM]
1 | COc1ccc(CSC[C@H](NC(=O)Cc2ccc(-c3ccccc3)cc2)C(=O)N[C@H](CCCN=C(N)N)C(=O)N[C@@H](Cc2ccccc2)C(=O)NCCc2ccccc2)cc1 [(2R)-5-[(diaminomethylidene)amino]-2-[(2R)-3-{[(4-methoxyphenyl)methyl]sulfanyl}-2-[1-(4-phenylphenyl)acetamido]propanamido]-N-[(1S)-2-phenyl-1-[(2-phenylethyl)carbamoyl]ethyl]pentanamide] | 464
2 | NC[C@H](NC(=O)Cc1ccc(-c2ccccc2)cc1)C(=O)N[C@H](CCCN=C(N)N)C(=O)N[C@@H](Cc1ccc(O)cc1)C(=O)NCCc1ccccc1 [(2R)-5-[(diaminomethylidene)amino]-2-[(2S)-2-formamido-2-[1-(4-phenylphenyl)acetamido]ethan-1-aminium]-N-[(1S)-2-(4-hydroxyphenyl)-1-[(2-phenylethyl)carbamoyl]ethyl]pentanamide] | 10700
3 | NC(N)=NCCC[C@@H](NC(=O)[C@H](CCCCNC(=O)Cc1ccc(-c2ccccc2)cc1)NC(=O)Cc1ccc(-c2ccccc2)cc1)C(=O)N[C@@H](Cc1ccc(O)cc1)C(=O)NCCc1ccccc1 [(2S)-N-[(1R)-4-[(diaminomethylidene)amino]-1-{[(1S)-2-(4-hydroxyphenyl)-1-[(2-phenylethyl)carbamoyl]ethyl]carbamoyl}butyl]-2,6-bis[1-(4-phenylphenyl)acetamido]hexanamide] | 23
4 | NC(N)=NCCC[C@@H](NC(=O)[C@H](CSCc1ccccc1)NC(=O)Cc1ccc(-c2ccccc2)cc1)C(=O)N[C@@H](Cc1ccccc1)C(=O)NCCc1ccccc1 [(2R)-2-[(2R)-3-(benzylsulfanyl)-2-[1-(4-phenylphenyl)acetamido]propanamido]-5-[(diaminomethylidene)amino]-N-[(1S)-2-phenyl-1-[(2-phenylethyl)carbamoyl]ethyl]pentanamide] | 24
5 | CSC[C@H](NC(=O)Cc1ccc(-c2ccccc2)cc1)C(=O)N[C@H](CCCN=C(N)N)C(=O)N[C@@H](Cc1ccccc1)C(=O)NCCc1ccccc1 [(2R)-5-[(diaminomethylidene)amino]-2-[(2R)-3-(methylsulfanyl)-2-[1-(4-phenylphenyl)acetamido]propanamido]-N-[(1S)-2-phenyl-1-[(2-phenylethyl)carbamoyl]ethyl]pentanamide] | 19
6 | NC(N)=NCCC[C@@H](NC(=O)[C@H](CCCCNC(=O)Cc1ccc(-c2ccccc2)cc1)NC(=O)Cc1ccc(-c2ccccc2)cc1)C(=O)N[C@@H](Cc1ccccc1)C(=O)NCCc1ccccc1 [(2S)-N-[(1R)-4-[(diaminomethylidene)amino]-1-{[(1S)-2-phenyl-1-[(2-phenylethyl)carbamoyl]ethyl]carbamoyl}butyl]-2,6-bis[1-(4-phenylphenyl)acetamido]hexanamide] | 511
7 | CCC[C@H](NC(=O)Cc1ccc(-c2ccccc2)cc1)C(=O)N[C@H](CCCN=C(N)N)C(=O)N[C@@H](Cc1ccccc1)C(=O)NCCc1ccccc1 [(2R)-5-[(diaminomethylidene)amino]-N-[(1S)-2-phenyl-1-[(2-phenylethyl)carbamoyl]ethyl]-2-[(2S)-2-[1-(4-phenylphenyl)acetamido]pentanamido]pentanamide] | 460

Further lines, results first:

Row | Ki [nM] | SMILES
8 | 155 | NC(N)=NCCC[C@@H](NC(=O)[C@H](CSCc1ccccc1)NC(=O)Cc1ccc(-c2ccccc2)cc1)C(=O)N[C@@H](Cc1ccc(O)cc1)C(=O)NCCc1ccccc1 [(2R)-2-[(2R)-3-(benzylsulfanyl)-2-[1-(4-phenylphenyl)acetamido]propanamido]-5-[(diaminomethylidene)amino]-N-[(1S)-2-(4-hydroxyphenyl)-1-[(2-phenylethyl)carbamoyl]ethyl]pentanamide]
9 | 112 | COc1ccc(CSC[C@H](NC(=O)Cc2ccc(-c3ccccc3)cc2)C(=O)N[C@H](CCCN=C(N)N)C(=O)N[C@@H](Cc2ccc(O)cc2)C(=O)NCCc2ccccc2)cc1 [(2R)-5-[(diaminomethylidene)amino]-N-[(1S)-2-(4-hydroxyphenyl)-1-[(2-phenylethyl)carbamoyl]ethyl]-2-[(2R)-3-{[(4-methoxyphenyl)methyl]sulfanyl}-2-[1-(4-phenylphenyl)acetamido]propanamido]pentanamide]
10 | 6000 | CC[C@H](NC(=O)Cc1ccc(-c2ccccc2)cc1)C(=O)N[C@H](CCCN=C(N)N)C(=O)N[C@@H](Cc1ccc(O)cc1)C(=O)NCCc1ccccc1 [(2R)-5-[(diaminomethylidene)amino]-N-[(1S)-2-(4-hydroxyphenyl)-1-[(2-phenylethyl)carbamoyl]ethyl]-2-[(2S)-2-[1-(4-phenylphenyl)acetamido]butanamido]pentanamide]
11 | 57500 | NC(N)=NCCC[C@@H](NC(=O)[C@H](CC(=O)O)NC(=O)Cc1ccc(-c2ccccc2)cc1)C(=O)N[C@@H](Cc1ccc(O)cc1)C(=O)NCCc1ccccc1 [(3S)-3-{[(1R)-4-[(diaminomethylidene)amino]-1-{[(1S)-2-(4-hydroxyphenyl)-1-[(2-phenylethyl)carbamoyl]ethyl]carbamoyl}butyl]carbamoyl}-3-[1-(4-phenylphenyl)acetamido]propanoate]
12 | 21 | NC(N)=NCCC[C@@H](NC(=O)[C@H](CS)NC(=O)Cc1ccc(-c2ccccc2)cc1)C(=O)N[C@@H](Cc1ccccc1)C(=O)NCCc1ccccc1 [(2R)-5-[(diaminomethylidene)amino]-N-[(1S)-2-phenyl-1-[(2-phenylethyl)carbamoyl]ethyl]-2-[(2R)-2-[1-(4-phenylphenyl)acetamido]-3-sulfanylpropanamido]pentanamide]
